ChEMBL document CHEMBL2086309, “Discovery of liver selective non-steroidal glucocorticoid receptor antagonist as novel antidiabetic agents” (Bioorg Med Chem Lett, 2012)
Each block holds one compound with its values, some of them ahead of it.

How the values were obtained:
[1] = target: T1, Glucocorticoid receptor (Homo sapiens, UniProt P04150); assay: Displacement of [3H]dexamethasone from human glucocorticoid receptor expressed in baculovirus infected Sf9 cells after overnight incubation by scintillation counting
T1 sequence (P04150 whole entry): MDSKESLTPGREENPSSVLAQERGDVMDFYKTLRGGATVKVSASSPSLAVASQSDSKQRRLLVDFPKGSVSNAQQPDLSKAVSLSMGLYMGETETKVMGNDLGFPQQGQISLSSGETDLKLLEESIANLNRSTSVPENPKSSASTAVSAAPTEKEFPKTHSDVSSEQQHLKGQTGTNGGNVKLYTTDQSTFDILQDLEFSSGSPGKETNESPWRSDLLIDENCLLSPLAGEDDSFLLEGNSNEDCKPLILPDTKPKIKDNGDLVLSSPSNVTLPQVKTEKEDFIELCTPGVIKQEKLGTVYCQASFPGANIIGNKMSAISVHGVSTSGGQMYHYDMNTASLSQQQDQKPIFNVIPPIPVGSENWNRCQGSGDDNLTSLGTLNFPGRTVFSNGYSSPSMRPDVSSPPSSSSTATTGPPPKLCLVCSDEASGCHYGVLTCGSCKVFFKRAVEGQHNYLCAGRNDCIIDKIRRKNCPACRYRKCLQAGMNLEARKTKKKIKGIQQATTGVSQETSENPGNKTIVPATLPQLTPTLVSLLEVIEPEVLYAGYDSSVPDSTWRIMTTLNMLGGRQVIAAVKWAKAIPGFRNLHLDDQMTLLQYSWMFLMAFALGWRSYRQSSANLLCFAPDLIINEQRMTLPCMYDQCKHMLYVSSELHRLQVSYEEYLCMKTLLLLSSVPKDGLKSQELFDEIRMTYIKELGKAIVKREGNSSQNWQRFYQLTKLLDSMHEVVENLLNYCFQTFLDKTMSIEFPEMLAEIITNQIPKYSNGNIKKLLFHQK

[2] = target: T1, Glucocorticoid receptor; assay: Antagonist activity at human glucocorticoid receptor expressed in GRAF cells assessed as inhibition of dexamethasone-induced alkaline phosphatase expression after 48 hrs by reporter gene assay; assay type: functional, cell-based
[3] = target: T2, Glucocorticoid receptor (Rattus norvegicus, UniProt P06536); assay: Antagonist activity at glucocorticoid receptor in rat hepatocytes assessed as inhibition of dexamethasone-induced […] expression incubated for 30 mins prior to dexamethasone-induction measured after 4 hrs by reporter gene assay; assay type: functional, cell-based, Hepatocyte
T2 sequence (P06536 whole entry): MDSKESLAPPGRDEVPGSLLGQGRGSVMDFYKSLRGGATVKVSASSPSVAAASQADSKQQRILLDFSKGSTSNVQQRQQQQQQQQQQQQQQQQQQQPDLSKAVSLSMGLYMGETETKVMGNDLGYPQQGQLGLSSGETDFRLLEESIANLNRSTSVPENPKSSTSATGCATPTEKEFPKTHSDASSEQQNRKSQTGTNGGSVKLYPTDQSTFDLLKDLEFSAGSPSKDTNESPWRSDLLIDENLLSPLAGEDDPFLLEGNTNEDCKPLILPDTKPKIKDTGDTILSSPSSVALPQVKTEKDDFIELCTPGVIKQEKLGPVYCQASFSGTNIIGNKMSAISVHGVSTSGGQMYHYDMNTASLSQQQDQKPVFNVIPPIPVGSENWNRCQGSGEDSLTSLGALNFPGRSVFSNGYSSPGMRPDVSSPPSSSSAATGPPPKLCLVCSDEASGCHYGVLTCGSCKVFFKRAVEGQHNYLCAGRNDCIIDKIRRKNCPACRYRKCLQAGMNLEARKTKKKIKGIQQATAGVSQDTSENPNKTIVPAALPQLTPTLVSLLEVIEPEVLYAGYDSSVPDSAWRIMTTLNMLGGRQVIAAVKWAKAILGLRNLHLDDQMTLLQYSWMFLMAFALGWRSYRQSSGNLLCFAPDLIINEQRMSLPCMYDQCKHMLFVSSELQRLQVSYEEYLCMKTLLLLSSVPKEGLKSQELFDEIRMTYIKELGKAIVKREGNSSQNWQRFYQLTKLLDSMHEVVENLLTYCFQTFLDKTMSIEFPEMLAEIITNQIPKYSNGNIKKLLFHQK

[4] = Tmax in Sprague-Dawley rat at 20 mg/kg, po administered as single dose; assay type: ADME, organism-based; parameters: dose 20 mg/kg, route oral; conditions: in vivo
[5] = Cmax in Sprague-Dawley rat at 20 mg/kg, po administered as single dose; assay type: ADME, organism-based; parameters: dose 20 mg/kg, route oral; conditions: in vivo
[6] = Half life in Sprague-Dawley rat at 20 mg/kg, po administered as single dose; assay type: ADME, organism-based; parameters: dose 20 mg/kg, route oral; conditions: in vivo
[7] = AUC (0 to infinity) in Sprague-Dawley rat at 20 mg/kg, po administered as single dose; assay type: ADME, organism-based; parameters: time infinity, dose 20 mg/kg, route oral; conditions: plasma
[8] = AUC in Sprague-Dawley rat at 20 mg/kg, iv administered as single dose; assay type: ADME, organism-based; parameters: dose 20 mg/kg, route intravenous; conditions: plasma
[9] = Oral bioavailability in Sprague-Dawley rat; assay type: ADME, organism-based; conditions: in vivo
[10] = Drug uptake in Sprague-Dawley rat liver at 20 mg/kg, po administered as single dose measured at 0.5 hrs; assay type: ADME, organism-based; parameters: dose 20 mg/kg, route oral; conditions: read-out: Drug uptake
[11] = Ratio of drug uptake in liver to plasma in Sprague-Dawley rat at 20 mg/kg, po administered as single dose; assay type: ADME, organism-based; parameters: dose 20 mg/kg, route oral
[12] = system: Mus musculus; assay: Antidiabetic activity in po dosed ob/ob mouse assessed as decrease in post-prandial blood glucose level administered BID for 28 days measured 16 hrs post-last dose; assay type: functional, organism-based
[13] = system: Mus musculus; assay: Antidiabetic activity in ob/ob mouse assessed as decrease in post-prandial blood glucose level at 10 mg/kg, po administered BID for 28 days measured 16 hrs post-last dose relative to vehicle-treated control; assay type: functional; parameters: scale not given: the % may be the effect or the level left
[14] = system: Mus musculus; assay: Antidiabetic activity in ob/ob mouse assessed as decrease in post-prandial blood glucose level at 20 mg/kg, po administered BID for 28 days measured 16 hrs post-last dose relative to vehicle-treated control; assay type: functional; parameters: scale not given: the % may be the effect or the level left
[15] = system: Mus musculus; assay: Antidiabetic activity in ob/ob mouse assessed as insulin level at 10 mg/kg, po administered BID for 28 days measured 16 hrs post-last dose by ELISA (reference value: 13.6+/-2.3 ng/mL); assay type: functional
[16] = system: Mus musculus; assay: Antidiabetic activity in ob/ob mouse assessed as insulin level at 20 mg/kg, po administered BID for 28 days measured 16 hrs post-last dose by ELISA (reference value: 13.6+/-2.3 ng/mL); assay type: functional
[17] = system: Mus musculus; assay: Antidiabetic activity in ob/ob mouse assessed as Hb1Ac level at 10 mg/kg, po administered BID for 28 days measured 16 hrs post-last dose (reference value: 9.3+/-0.4%); assay type: functional
[18] = system: Mus musculus; assay: Antidiabetic activity in ob/ob mouse assessed as Hb1Ac level at 20 mg/kg, po administered BID for 28 days measured 16 hrs post-last dose (reference value: 9.3+/-0.4%); assay type: functional
[19] = system: Mus musculus; assay: Antihyperlipidemic activity in ob/ob mouse assessed as triglyceride level at 10 mg/kg, po administered BID for 28 days measured 16 hrs post-last dose (reference value: 292.5+/-17.5 mg/dL); assay type: functional
[20] = system: Mus musculus; assay: Antihyperlipidemic activity in ob/ob mouse assessed as triglyceride level at 20 mg/kg, po administered BID for 28 days measured 16 hrs post-last dose (reference value: 292.5+/-17.5 mg/dL); assay type: functional
[21] = system: Mus musculus; assay: Antihyperlipidemic activity in ob/ob mouse assessed as free fatty acid level at 10 mg/kg, po administered BID for 28 days measured 16 hrs post-last dose (reference value: 1.96+/-0.09 mEq/L); assay type: functional
[22] = system: Mus musculus; assay: Antihyperlipidemic activity in ob/ob mouse assessed as free fatty acid level at 20 mg/kg, po administered BID for 28 days measured 16 hrs post-last dose (reference value: 1.96+/-0.09 mEq/L); assay type: functional
[23] = system: Mus musculus; assay: Antihyperlipidemic activity in ob/ob mouse assessed as cholesterol level at 10 mg/kg, po administered BID for 28 days measured 16 hrs post-last dose (reference value: 331.2+/-17.9 mg/dL); assay type: functional
[24] = system: Mus musculus; assay: Antihyperlipidemic activity in ob/ob mouse assessed as cholesterol level at 20 mg/kg, po administered BID for 28 days measured 16 hrs post-last dose (reference value: 331.2+/-17.9 mg/dL); assay type: functional
[25] = system: Mus musculus; assay: Toxicity in ob/ob mouse assessed as change in body weight at 10 mg/kg, po administered BID for 28 days (reference value: 11.7+/-1.1 g); assay type: organism-based; parameters: dose 10 mg/kg, route oral; conditions: in vivo, 672 h
[26] = system: Mus musculus; assay: Toxicity in ob/ob mouse assessed as change in body weight at 20 mg/kg, po administered BID for 28 days (reference value: 11.7+/-1.1 g); assay type: organism-based; parameters: dose 20 mg/kg, route oral; conditions: in vivo, 672 h
[27] = system: Mus musculus; assay: Hepatotoxicity in ob/ob mouse assessed as AST level at 10 mg/kg, po administered BID for 28 days measured st 16 hrs post-last dose (reference value: 332.2+/-39.1 U/L); assay type: toxicity, organism-based; parameters: dose 10 mg/kg, route oral; conditions: in vivo
[28] = system: Mus musculus; assay: Hepatotoxicity in ob/ob mouse assessed as AST level at 20 mg/kg, po administered BID for 28 days measured st 16 hrs post-last dose (reference value: 332.2+/-39.1 U/L); assay type: toxicity, organism-based; parameters: dose 20 mg/kg, route oral; conditions: in vivo
[29] = system: Rattus norvegicus; assay: Activation of hyphalamic-pituitary-adrenal axis in Sprague-Dawley rat assessed as change in ACTH level at 100 mg/kg, po administered as single dose measured at 2 hrs by ELISA relative to vehicle-treated control; assay type: organism-based; parameters: dose 100 mg/kg, route oral; conditions: in vivo
[30] = system: Rattus norvegicus; assay: Activation of hyphalamic-pituitary-adrenal axis in Sprague-Dawley rat assessed as change in corticosterone level at 100 mg/kg, po administered as single dose measured at 2 hrs relative to vehicle-treated control; assay type: organism-based; parameters: dose 100 mg/kg, route oral; conditions: in vivo
[31] = system: Mus musculus; assay: Hepatotoxicity in ob/ob mouse assessed as ALT level at 10 mg/kg, po administered BID for 28 days measured st 16 hrs post-last dose (reference value: 259.4+/-18.6 U/L); assay type: toxicity, organism-based; parameters: dose 10 mg/kg, route oral; conditions: in vivo
[32] = system: Mus musculus; assay: Hepatotoxicity in ob/ob mouse assessed as ALT level at 20 mg/kg, po administered BID for 28 days measured st 16 hrs post-last dose (reference value: 259.4+/-18.6 U/L); assay type: toxicity, organism-based; parameters: dose 20 mg/kg, route oral; conditions: in vivo

IC50 [1]: 722 nM | IC50 [2]: 1050 nM | IC50 [3]: 3900 nM
Compound: O=C(O)Cc1cc(Br)c(N(Cc2ccc(Oc3ccccc3)cc2)Cc2cc(F)cc(F)c2)c(Br)c1

IC50 [1]: 1260 nM
Compound: COc1ccccc1Oc1ccc(CN(Cc2cc(F)cc(F)c2)c2c(Br)cc(CC(=O)O)cc2Br)cc1

IC50 [1]: 235 nM | IC50 [2]: 512 nM | IC50 [3]: 3000 nM
Compound: O=C(O)Cc1cc(Br)c(N(Cc2ccc(Oc3ccccc3Cl)cc2)Cc2cc(F)cc(F)c2)c(Br)c1

IC50 [1]: 4.5 nM | IC50 [2]: 211 nM | IC50 [3]: 900 nM | Tmax [4]: 0.51 h | Cmax [5]: 880 ng/mL | half-life [6]: 5.96 h | AUC(0-inf) [7]: 1390 ng·h/mL | AUC [8]: 13000 ng·h/mL | bioavailability [9]: 10.7% | concentration at 0.5 h [10]: 21800 ng/mL | Kp [11]: 24.8
Compound: O=C(O)Cc1cc(Br)c(N(Cc2ccc(Oc3ccc(F)cc3F)cc2)Cc2cc(F)cc(F)c2)c(Br)c1
Activity [12]: Dose-dependent effect | Activity [13]: 32% | Activity [14]: 42% | Activity [15]: 14.1 ng/mL | Activity [16]: 12.3 ng/mL | Activity [17]: 6.7% | Activity [18]: 6% | Activity [19]: 214.3 mg/dL | Activity [20]: 173.5 mg/dL | Activity [21]: 1.32 mEq/L | Activity [22]: 1.17 mEq/L | Activity [23]: 266.6 mg/dL | Activity [24]: 219.5 mg/dL | Activity [25]: 11.9 g | Activity [26]: 10.9 g | Activity [27]: 345.3 U/L | Activity [28]: 353.2 U/L | Activity [29]: Non-toxic | Activity [30]: Non-toxic | Activity [31]: 261 U/L | Activity [32]: 247.5 U/L

IC50 [1]: > 10000 nM
Compound: c1ccc(CN(Cc2ccc(Oc3ccccc3)cc2)c2ccccc2)cc1
